From EPA's ToxRefDB 2

Assays:
rat [1] = conditions: Reproduction/developmental toxicity screening test, sprague dawley, Dermal, Topical, dose end: 1 generation
rabbit [2] = conditions: Subchronic dermal toxicity, new zealand white, Topical, dose end: 13 week, group: systemic, systemic / pathology gross / skin / scabbing + systemic / pathology microscopic / skin / inflammation + systemic / in life observation / …
rabbit [3] = conditions: Prenatal developmental toxicity study, new zealand white, Oral, Gavage/Intubation, dose end: 27 GD
rat [4] = conditions: Subchronic oral toxicity in rodents, sprague dawley, Feed, dose end: 90 day, group: systemic
dog [5] = conditions: Chronic toxicity, beagle, Oral, Feed, dose end: 52 week, group: systemic
rat [6] = conditions: Combined chronic toxicity/carcinogenicity, sprague dawley, Oral, Feed, dose end: 24 month, group: systemic
mouse [7] = conditions: Carcinogenicity, cd1, Oral, Feed, dose end: 24 month, group: systemic
rat [8] = conditions: Prenatal developmental toxicity study, other, Oral, Gavage/Intubation, dose end: 15 GD
rat [9] = conditions: Subchronic oral toxicity in rodents, other, [Not Specified], dose end: 90 day, group: systemic
hamster [10] = conditions: Carcinogenicity, golden syrian, Oral, Feed, dose end: 91 week, group: systemic
rat [11] = conditions: Combined chronic toxicity/carcinogenicity; fischer; Oral; Feed; dose end: 110 week; group: systemic; systemic / clinical chemistry / cholesterol / cholesterol + systemic / clinical chemistry / creatinine / creatinine + systemic / clinical …
hamster [12] = conditions: Subchronic oral toxicity in rodents, golden syrian, Feed, dose end: 13 week, group: systemic
hamster [13] = conditions: Carcinogenicity; golden syrian; Oral; Feed; dose end: 88 week; group: systemic; systemic / pathology microscopic / pancreas / hyperplasia + systemic / pathology microscopic / prostate / secretory fluid + systemic / …
dog [14] = conditions: Chronic toxicity, beagle, Oral, Feed, dose end: 24 month, group: systemic
rabbit [15] = conditions: Prenatal developmental toxicity study, new zealand white, Oral, Gavage/Intubation, dose end: 19 GD
rat [16] = conditions: Multigenerational reproductive toxicity study, sprague dawley, Oral, Feed, dose end: 2 generation
mouse [17] = conditions: Subchronic oral toxicity in rodents, b6c3f1, Gavage/Intubation, dose end: 14 week, group: systemic
rat [18] = conditions: Subchronic oral toxicity in rodents, fischer, Gavage/Intubation, dose end: 14 week, group: systemic, systemic / in life observation / body weight / body weight + systemic / in life observation / body weight / body weight gain + systemic / …
mouse [19] = conditions: Carcinogenicity; b6c3f1; Oral; Gavage/Intubation; dose end: 105 week; group: systemic; systemic / in life observation / body weight / body weight + systemic / pathology microscopic / liver / hematopoietic cell proliferation + …
rat [20] = conditions: Carcinogenicity; fischer; Oral; Gavage/Intubation; dose end: 105 week; group: systemic; systemic / in life observation / body weight / body weight + systemic / pathology gross / liver / discolored + systemic / pathology gross / …
[21] = group: offspring, systemic / in life observation / body weight / offspring (pup) weight
[22] = group: offspring, systemic / in life observation / body weight / offspring (pup) weight + systemic / in life observation / clinical signs / desquamation + …
[23] = group: parental, systemic / in life observation / body weight / body weight + systemic / in life observation / body weight / body weight gain + systemic / in…
[24] = group: parental, systemic / in life observation / clinical signs / desquamation + systemic / in life observation / clinical signs / erythema + systemic / …
[25] = group: developmental, systemic / in life observation / body weight / fetal weight
[26] = group: maternal, systemic / in life observation / body weight / body weight gain + systemic / in life observation / food consumption / food consumption + …
[27] = systemic / clinical chemistry / calcium / calcium + systemic / organ weight / heart / relative to body weight
[28] = systemic / pathology microscopic / prostate / hyperplasia
[29] = systemic / in life observation / body weight / body weight + systemic / in life observation / body weight / body weight gain
[30] = systemic / pathology microscopic / liver / cytomegaly
[31] = systemic / pathology microscopic / liver / cytomegaly + systemic / pathology microscopic / lung / adenoma + systemic / in life observation…
[32] = group: developmental, developmental / developmental malformation / bone / unossified
[33] = group: maternal, systemic / in life observation / body weight / body weight + systemic / in life observation / body weight / body weight gain + systemic / …
[34] = systemic / organ weight / liver / nos
[35] = systemic / organ weight / liver / nos + systemic / hematology / leukocyte (wbc) count differential / leukocyte (wbc) + systemic / hematology…
[36] = systemic / in life observation / body weight / body weight gain
[37] = systemic / in life observation / body weight / body weight gain + systemic / organ weight / heart / nos
[38] = systemic / clinical chemistry / lipids / phospholipids + systemic / organ weight / liver / nos + systemic / organ weight / prostate / nos + …
[39] = systemic / clinical chemistry / lipids / phospholipids + systemic / organ weight / liver / nos + systemic / pathology microscopic / …
[40] = systemic / clinical chemistry / [other] / [other] + systemic / clinical chemistry / alanine aminotransferase (alt/sgpt) / alanine …
[41] = group: developmental, developmental / developmental malformation / aortic arch / dilated + developmental / developmental malformation / aortic arch / narrowed + …
[42] = group: maternal, reproductive / reproductive performance / postimplantation loss / postimplantation loss + reproductive / reproductive performance / …
[43] = group: reproductive, reproductive / reproductive performance / implantations / implantations
[44] = systemic / in life observation / body weight / body weight gain + systemic / organ weight / liver / absolute + systemic / organ weight / …
[45] = systemic / organ weight / epididymis / nos + systemic / organ weight / testes / nos

ClC=CC[N+]12CN3CN(CN(C3)C1)C2.[Cl-] [N-(3-Chloroallyl)hexaminium chloride]
NEL (rat [1]; [21]): 75 mg/kg/day | LEL (rat [1]; [22]): 225 mg/kg/day | LOAEL (rat [1]; [22]): > 750 mg/kg/day | NOAEL (rat [1]; [22]): ≥ 750 mg/kg/day | LOAEL (rat [1]; [23]): > 750 mg/kg/day | NOAEL (rat [1]; [23]): ≥ 750 mg/kg/day | LEL (rat [1]; [24]): 75 mg/kg/day | NEL (rat [1]; [24]): < 75 mg/kg/day | LEL (rabbit [2]): 50 mg/kg/day | LOAEL (rabbit [2]): > 1000 mg/kg/day | NEL (rabbit [2]): < 50 mg/kg/day | NOAEL (rabbit [2]): ≥ 1000 mg/kg/day | LEL (rabbit [3]; [25]): 16 mg/kg/day | LOAEL (rabbit [3]; [25]): 16 mg/kg/day | NEL (rabbit [3]; [25]): 5.1 mg/kg/day | NOAEL (rabbit [3]; [25]): 5.1 mg/kg/day | LEL (rabbit [3]; [26]): 16 mg/kg/day | LOAEL (rabbit [3]; [26]): 16 mg/kg/day | NEL (rabbit [3]; [26]): 5.1 mg/kg/day | NOAEL (rabbit [3]; [26]): 5.1 mg/kg/day

COc1nc(C)nc(NC(=O)NS(=O)(=O)c2ccccc2OCCCl)n1 [Triasulfuron]
LEL (rat [4]; [27]): 10 mg/kg/day | NEL (rat [4]; [27]): < 10 mg/kg/day | LOAEL (rat [4]; systemic / in life observation / body weight / body weight + systemic / in life observation / food consumption / food consumption): 500 mg/kg/day | NOAEL (rat [4]; systemic / in life observation / body weight / body weight + systemic / in life observation / food consumption / food consumption + systemic…): 10 mg/kg/day | LEL (dog [5]; [28]): 2.5 mg/kg/day | LOAEL (dog [5]; [28]): 25 mg/kg/day | NEL (dog [5]; [28]): < 2.5 mg/kg/day | NOAEL (dog [5]; systemic / pathology microscopic / prostate / hyperplasia + systemic / hematology / erythrocyte (rbc) count differential / erythrocyte (rbc…): 2.5 mg/kg/day | LOAEL (rat [6]; [29]): 221 mg/kg/day | NOAEL (rat [6]; [29]): 32.1 mg/kg/day | LEL (rat [6]; systemic / in life observation / clinical signs / palpable mass): 42.9 mg/kg/day | NEL (rat [6]; systemic / in life observation / clinical signs / palpable mass + systemic / in life observation / body weight / body weight + systemic / in…): 0.4 mg/kg/day | LEL (mouse [7]; [30]): 129 mg/kg/day | LOAEL (mouse [7]; [30]): 129 mg/kg/day | NEL (mouse [7]; [31]): 1.2 mg/kg/day | NOAEL (mouse [7]; [31]): 1.2 mg/kg/day | LEL (rat [8]; [32]): 100 mg/kg/day | LOAEL (rat [8]; [32]): 900 mg/kg/day | NEL (rat [8]; [32]): < 100 mg/kg/day | NOAEL (rat [8]; group: developmental, developmental / developmental malformation / bone / unossified + systemic / in life observation / body weight / fetal weight): 300 mg/kg/day | LOAEL (rat [8]; group: maternal, systemic / in life observation / body weight / body weight + systemic / in life observation / body weight / body weight gain): 300 mg/kg/day | LEL (rat [8]; group: maternal, systemic / in life observation / body weight / body weight + systemic / in life observation / body weight / body weight gain + systemic / in…): 300 mg/kg/day | NEL (rat [8]; [33]): 100 mg/kg/day | NOAEL (rat [8]; [33]): 100 mg/kg/day

N#Cc1c(Cl)cccc1Cl [Dichlobenil]
LEL (rat [9]; [34]): 50 mg/kg/day | LOAEL (rat [9]; [34]): 50 mg/kg/day | NEL (rat [9]; [35]): 5 mg/kg/day | NOAEL (rat [9]; [35]): 5 mg/kg/day | LOAEL (hamster [10]; [36]): 51 mg/kg/day | NOAEL (hamster [10]; [36]): < 51 mg/kg/day | LEL (hamster [10]; [37]): 51 mg/kg/day | NEL (hamster [10]; [37]): < 51 mg/kg/day | LEL (rat [11]): 17.3 mg/kg/day | LOAEL (rat [11]): 17.3 mg/kg/day | NEL (rat [11]): 2.1 mg/kg/day | NOAEL (rat [11]): 2.1 mg/kg/day | LEL (hamster [12]; [38]): 18.8 mg/kg/day | LOAEL (hamster [12]; [38]): 18.8 mg/kg/day | NEL (hamster [12]; [39]): 3.75 mg/kg/day | NOAEL (hamster [12]; [39]): 3.75 mg/kg/day | LEL (hamster [13]): 45.6 mg/kg/day | LOAEL (hamster [13]): 45.6 mg/kg/day | NEL (hamster [13]): 9.39 mg/kg/day | NOAEL (hamster [13]): 9.39 mg/kg/day | LOAEL (dog [14]; [40]): 8.75 mg/kg/day | NEL (dog [14]; [40]): 0.5 mg/kg/day | NOAEL (dog [14]; [40]): 1.25 mg/kg/day | LEL (dog [14]; systemic / urinalysis / occult blood / blood): 1.25 mg/kg/day | LEL (rabbit [15]; [41]): 135 mg/kg/day | LOAEL (rabbit [15]; [41]): 135 mg/kg/day | NEL (rabbit [15]; [41]): 45 mg/kg/day | NOAEL (rabbit [15]; [41]): 45 mg/kg/day | LEL (rabbit [15]; [42]): 135 mg/kg/day | LOAEL (rabbit [15]; [42]): 135 mg/kg/day | NEL (rabbit [15]; [42]): 45 mg/kg/day | NOAEL (rabbit [15]; [42]): 45 mg/kg/day | LEL (rat [16]; [21]): 15 mg/kg/day | LOAEL (rat [16]; [21]): 15 mg/kg/day | NEL (rat [16]; [21]): 3 mg/kg/day | NOAEL (rat [16]; [21]): 3 mg/kg/day | LEL (rat [16]; [23]): 100 mg/kg/day | LOAEL (rat [16]; [23]): 100 mg/kg/day | NEL (rat [16]; [23]): 15 mg/kg/day | NOAEL (rat [16]; [23]): 15 mg/kg/day | LEL (rat [16]; [43]): 100 mg/kg/day | LOAEL (rat [16]; [43]): > 100 mg/kg/day | NEL (rat [16]; [43]): 15 mg/kg/day | NOAEL (rat [16]; [43]): ≥ 100 mg/kg/day

C=CCc1ccc(OC)c(OC)c1 [Methyleugenol]
LOAEL (mouse [17]; [44]): 300 mg/kg/day | NOAEL (mouse [17]; [44]): 100 mg/kg/day | LEL (mouse [17]; [45]): 10 mg/kg/day | NEL (mouse [17]; [45]): < 10 mg/kg/day | LEL (rat [18]): 10 mg/kg/day | LOAEL (rat [18]): 300 mg/kg/day | NEL (rat [18]): < 10 mg/kg/day | NOAEL (rat [18]): 100 mg/kg/day | LEL (mouse [19]): 37 mg/kg/day | LOAEL (mouse [19]): 37 mg/kg/day | NEL (mouse [19]): < 37 mg/kg/day | NOAEL (mouse [19]): < 37 mg/kg/day | LEL (rat [20]): 37 mg/kg/day | LOAEL (rat [20]): 75 mg/kg/day | NEL (rat [20]): < 37 mg/kg/day | NOAEL (rat [20]): 37 mg/kg/day
